Test results taken from patent publication US20240025907A1, “QUINAZOLINE PAN-KRas INHIBITORS” (Mirati Therapeutics, Inc., priority 2022, published 2024).

Experiments:
Type in all cases: cell-based
[1] = tested on: KRas-mediated Phosphorylation of ERK in H358 cells; experiment: Cisbio HTRF pERK assay, H358 cells; conditions: Homo sapiens, NCI-H358, H358 cells, single point at 100 nM
[2] = tested on: KRas-mediated Phosphorylation of ERK in H460 cells; experiment: Cisbio HTRF pERK assay, H460 cells; conditions: single point at 100 nM; for inhibition at 0.1 µM: Homo sapiens, NCI-H460, H460 cells
[3] = tested on: KRas-mediated Phosphorylation of ERK in A549 cells; experiment: Cisbio HTRF pERK assay, A549 cells; conditions: Homo sapiens, A549, A549 cells, single point at 100 nM
[4] = tested on: KRas-mediated Phosphorylation of ERK in HCT116 cells; experiment: Cisbio HTRF pERK assay, HCT116 cells; conditions: single point at 100 nM; for inhibition at 0.1 µM: Homo sapiens, HCT-116, HCT116 cells

Compound | inhibition at 0.1 µM [1] [%] | Inhibition (HTRF % at 100 nM) of KRas-mediated Phosphorylation of ERK, H460 ([2]; H460 cells, 0.1 µM) [%] | inhibition at 0.1 µM [3] [%] | Inhibition (HTRF % at 100 nM) of KRas-mediated Phosphorylation of ERK, HCT116 ([4]; HCT116 cells, 0.1 µM) [%] | inhibition at 0.1 µM [2] [%] | inhibition at 0.1 µM [4] [%]
CCc1c(F)ccc2cc(O)cc(-c3c(F)cc4c(N5C[C@@H]6C[C@H](C5)[C@H](O)C6)nc(OC[C@@]56CCCN5C[C@H](F)C6)nc4c3F)c12 (atropisomer, axis not shown; (aS)) [Example 67, (1R,5R,6R)-3-((R)-7-(8-ethyl-7-fluoro-3-hydroxynaphthalen-1-yl)-6,8-difluoro-2-(((2R,7aS)-2-fluorohexahydro-1H-pyrrolizin-7a-yl)methoxy)quinazolin-4-yl)-3-azabicyclo[3.2.1]octan-6-ol] | 94 | 95 | 81 | 73 |  | 
CCc1c(F)ccc2cc(O)cc(-c3c(O)cc4c(N(C)C)nc(OC[C@@]56CCCN5C[C@H](F)C6)nc4c3F)c12 [Example 28, 4-(dimethylamino)-7-(8-ethyl-7-fluoro-3-hydroxynaphthalen-1-yl)-8-fluoro-2-(((2R,7aS)-2-fluorotetrahydro-1H-pyrrolizin-7a(5H)-yl)methoxy)quinazolin-6-ol] |  |  |  |  | 8 | 9
CCc1c(F)ccc2cc(O)cc(-c3ccc4c(N5CCCC6(CNC(=O)N6)C5)nc(OCC5(CN(C)C)CC5)nc4c3F)c12 (stereo not shown) [Example 36, 7-(2-((1-((dimethylamino)methyl)cyclopropyl)methoxy)-7-(8-ethyl-7-fluoro-3-hydroxynaphthalen-1-yl)-8-fluoroquinazolin-4-yl)-1,3,7-triazaspiro[4.5]decan-2-one] |  |  |  |  | 25 | -22
CCc1c(F)ccc2cc(O)cc(-c3ccc4c(N5CCCC6(CNS(=O)(=O)N6)C5)nc(OCC5(CN(C)C)CC5)nc4c3F)c12 (stereo not shown) [Example 37, 7-(2-((1-((dimethylamino)methyl)cyclopropyl)methoxy)-7-(8-ethyl-7-fluoro-3-hydroxynaphthalen-1-yl)-8-fluoroquinazolin-4-yl)-2-thia-1,3,7-triazaspiro[4.5]decane 2,2-dioxide] |  |  |  |  | 28 | 0
CCc1c(F)ccc2cc(O)cc(-c3ccc4c(N5CC6C(=O)NC(=O)C6C5)nc(OCC5(CN(C)C)CC5)nc4c3F)c12 (stereo not shown) [Example 39, 5-(2-((1-((dimethylamino)methyl)cyclopropyl)methoxy)-7-(8-ethyl-7-fluoro-3-hydroxynaphthalen-1-yl)-8-fluoroquinazolin-4-yl)tetrahydropyrrolo[3,4-c]pyrrole-1,3(2H,3aH)-dione] |  |  |  |  | 11 | 3
CCc1c(F)ccc2cc(O)cc(-c3ccc4c(N5CCOCC(C)(O)C5)nc(OCC5(CN(C)C)CC5)nc4c3F)c12 (stereo not shown) [Example 42, 4-(2-((1-((dimethylamino)methyl)cyclopropyl)methoxy)-7-(8-ethyl-7-fluoro-3-hydroxynaphthalen-1-yl)-8-fluoroquinazolin-4-yl)-6-methyl-1,4-oxazepan-6-ol] | 71 |  | 39 |  | 59 | 30
O=S1(=O)NCC2(CCCN(c3nc(OC[C@@]45CCCN4C[C@H](F)C5)nc4c(F)c(-c5cc(O)cc6ccc(F)c(Cl)c56)c(F)cc34)C2)N1 (stereo partly drawn) [Example 45, 7-(7-(8-chloro-7-fluoro-3-hydroxynaphthalen-1-yl)-6,8-difluoro-2-(((2R,7aS)-2-fluorotetrahydro-1H-pyrrolizin-7a(5H)-yl)methoxy)quinazolin-4-yl)-2-thia-1,3,7-triazaspiro[4.5]decane 2,2-dioxide] |  |  |  |  | 94 | 86
CCc1c(F)ccc2cc(O)cc(-c3c(F)cc4c(N5CCC[C@@](C)(O)C5)nc(OCC56CCCN5CCC6)nc4c3F)c12 [Example 48, (3R)-1-(7-(8-ethyl-7-fluoro-3-hydroxynaphthalen-1-yl)-6,8-difluoro-2-((tetrahydro-1H-pyrrolizin-7a(5H)-yl)methoxy)quinazolin-4-yl)-3-methylpiperidin-3-ol] |  |  |  |  | 75 | 50
CCc1c(F)ccc2cc(O)cc(-c3c(F)cc4c(N5CCCC6(CNC(=O)N6)C5)nc(OCC5(CN(C)C)CC5)nc4c3F)c12 (stereo not shown) [Example 49, 7-(2-((1-((dimethylamino)methyl)cyclopropyl)methoxy)-7-(8-ethyl-7-fluoro-3-hydroxynaphthalen-1-yl)-6,8-difluoroquinazolin-4-yl)-1,3,7-triazaspiro[4.5]decan-2-one] |  |  |  |  | 23 | 13
CCc1c(F)ccc2cc(O)cc(-c3c(F)cc4c(N5CCCC6(CNS(=O)(=O)N6)C5)nc(OCC5(CN(C)C)CC5)nc4c3F)c12 (stereo not shown) [Example 50, 7-(2-((1-((dimethylamino)methyl)cyclopropyl)methoxy)-7-(8-ethyl-7-fluoro-3-hydroxynaphthalen-1-yl)-6,8-difluoroquinazolin-4-yl)-2-thia-1,3,7-triazaspiro[4.5]decane 2,2-dioxide] | 3 |  | -17 |  | 38 | -3
CCc1c(F)ccc2cc(O)cc(-c3c(F)cc4c(N5CCOCC(C)(O)C5)nc(OCC5(CN(C)C)CC5)nc4c3F)c12 (stereo not shown) [Example 56, 4-(2-((1-((dimethylamino)methyl)cyclopropyl)methoxy)-7-(8-ethyl-7-fluoro-3-hydroxynaphthalen-1-yl)-6,8-difluoroquinazolin-4-yl)-6-methyl-1,4-oxazepan-6-ol] | 87 |  | 47 |  | 86 | 51
CCc1c(F)ccc2cc(O)cc(-c3c(F)cc4c(N5CCCn6nc(C(=O)N7CCCC7)cc6C5)nc(OC[C@@]56CCCN5C[C@H](F)C6)nc4c3F)c12 [Example 58, (5-(7-(8-ethyl-7-fluoro-3-hydroxynaphthalen-1-yl)-6,8-difluoro-2-(((2R,7aS)-2-fluorotetrahydro-1H-pyrrolizin-7a(5H)-yl)methoxy)quinazolin-4-yl)-5,6,7,8-tetrahydro-4H-pyrazolo[1,5-a][1,4]diazepin-2-yl)(pyrrolidin-1-yl)methanone] |  |  |  |  | 58 | 12
CCc1c(F)ccc2cc(O)cc(-c3c(F)cc4c(N5CCCn6nc(C(=O)NC(C)C)cc6C5)nc(OC[C@@]56CCCN5C[C@H](F)C6)nc4c3F)c12 [Example 59, 5-(7-(8-ethyl-7-fluoro-3-hydroxynaphthalen-1-yl)-6,8-difluoro-2-(((2R,7aS)-2-fluorotetrahydro-1H-pyrrolizin-7a(51)-yl)methoxy)quinazolin-4-yl)-N-isopropyl-5,6,7,8-tetrahydro-4H-pyrazolo[1,5-a][1,4]diazepine-2-carboxamide] |  |  |  |  | 36 | 23
CCc1c(F)ccc2cc(O)cc(-c3c(F)cc4c(N5CCCn6nncc6C5)nc(OC[C@@]56CCCN5C[C@H](F)C6)nc4c3F)c12 [Example 61, 4-(4-(7,8-dihydro-4H-[1,2,3]triazolo[1,5-a][1,4]diazepin-5(6H)-yl)-6,8-difluoro-2-(((2R,7aS)-2-fluorotetrahydro-1H-pyrrolizin-7a(5H)-yl)methoxy)quinazolin-7-yl)-5-ethyl-6-fluoronaphthalen-2-ol] |  |  |  |  | 36 | 9
CCc1c(F)ccc2cc(O)cc(-c3c(F)cc4c(N5CCCC6(CC(=O)NC6=O)C5)nc(OC[C@@]56CCCN5C[C@H](F)C6)nc4c3F)c12 (stereo partly drawn) [Example 62, 7-(7-(8-ethyl-7-fluoro-3-hydroxynaphthalen-1-yl)-6,8-difluoro-2-(((2R,7aS)-2-fluorotetrahydro-1H-pyrrolizin-7a(5H)-yl)methoxy)quinazolin-4-yl)-2,7-azaspiro[4.5]decane-1,3-dione] | 96 |  | 72 |  | 98 | 92
O=S1(=O)NCC2(CCCN(c3nc(OC[C@@]45CCCN4C[C@H](F)C5)nc4c(F)c(-c5cc(O)cc6ccc(F)c(Cl)c56)ccc34)C2)N1 (stereo partly drawn) [Example 72, 7-(7-(8-chloro-7-fluoro-3-hydroxynaphthalen-1-yl)-8-fluoro-2-(((2R,7aS)-2-fluorohexahydro-1H-pyrrolizin-7a-yl)methoxy)quinazolin-4-yl)-2-thia-1,3,7-triazaspiro[4.5]decane 2,2-dioxide] | 98 |  | 76 |  | 87 | 69
CCc1c(F)ccc2cc(O)cc(-c3c(F)cc4c(N5CCCn6nc(C(=O)N7CCOCC7)c(Cl)c6C5)nc(OC[C@@]56CCCN5C[C@H](F)C6)nc4c3F)c12 [Example 79, (3-chloro-5-(7-(8-ethyl-7-fluoro-3-hydroxynaphthalen-1-yl)-6,8-difluoro-2-(((2R,7aS)-2-fluorohexahydro-1H-pyrrolizin-7a-yl)methoxy)quinazolin-4-yl)-5,6,7,8-tetrahydro-4H-pyrazolo[1,5-a][1,4]diazepin-2-yl)(morpholino)methanone] | 95 |  | 60 |  | 85 | 64
CCc1c(F)ccc2cc(O)cc(-c3c(F)cc4c(N5CCCn6nc(C(=O)N(C)C)c(C)c6C5)nc(OC[C@@]56CCCN5C[C@H](F)C6)nc4c3F)c12 [Example 80, 5-(7-(8-ethyl-7-fluoro-3-hydroxynaphthalen-1-yl)-6,8-difluoro-2-(((2R,7aS)-2-fluorohexahydro-1H-pyrrolizin-7a-yl)methoxy)quinazolin-4-yl)-N,N,3-trimethyl-5,6,7,8-tetrahydro-4H-pyrazolo[1,5-a][1,4]diazepine-2-carboxamide] | 95 |  | 83 |  | 89 | 71
